biological target: T1, menin/MLL binding (biotinylated wild-type or mutated menin and MLL-AF9 fusion protein) (Homo sapiens, UniProt O00255); assay: Assay 1 (Binding Assay): AlphaLISA menin/MLL binding; conditions: 5 nM biotinylated menin, MLL-AF9-FLAG lysate
T1 construct: biotinylated (1) wild-type menin or (2) mutated menin (described in Nature (2012) Vol. 482, pp. 542-548); fused on or other part: Biotin attached chemically (Sulfo-NHS-Biotin); no fused second protein is printed for menin
T1 sequence (O00255 1-459 limits assumed): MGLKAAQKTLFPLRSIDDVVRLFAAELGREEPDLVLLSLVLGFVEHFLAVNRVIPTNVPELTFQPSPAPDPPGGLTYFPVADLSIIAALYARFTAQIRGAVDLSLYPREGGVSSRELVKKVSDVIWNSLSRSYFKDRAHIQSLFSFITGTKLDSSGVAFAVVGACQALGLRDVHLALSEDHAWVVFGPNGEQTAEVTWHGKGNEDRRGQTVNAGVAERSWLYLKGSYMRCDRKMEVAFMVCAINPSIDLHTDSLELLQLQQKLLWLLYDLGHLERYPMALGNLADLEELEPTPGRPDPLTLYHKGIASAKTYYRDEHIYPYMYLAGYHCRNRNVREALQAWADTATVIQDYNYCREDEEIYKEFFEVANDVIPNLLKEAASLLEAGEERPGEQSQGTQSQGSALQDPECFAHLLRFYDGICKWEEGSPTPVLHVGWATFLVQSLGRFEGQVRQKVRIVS
Description: Potencies of inhibitor compounds against menin/MLL binding were assessed by AlphaLISA assay using biotinylated (1) wild-type menin or (2) mutated menin (described in Nature (2012) Vol. 482, pp. 542-548) and MLL-AF9 fusion protein bearing a FLAG epitope at its C-terminus. Menin proteins were expressed in E. coli and covalently modified with biotin using EZ-Link™ Sulfo-NHS-Biotin (ThermoFisher Cat. No. 21217) according to manufacturer's protocol. MLL1-1,396 fused to AF91-92 and the C-terminal FLAG peptide was expressed in HEK293 cells and used as a lysate cleared at 21,000×g for 10 min.
Compounds (2 μL of solutions in DMSO) were dispensed in white 96-well half-area plates (Corning Cat. No. 3693) and incubated for 30 min at RT with 5 nM biotinylated menin and appropriate amount of MLL-AF9-FLAG lysate in 40 μL of 50 mM Tris-HCl buffer pH 7.4 containing 5% (v/v) DMSO, 50 mM NaCl, 0.01% (w/v) bovine serum albumin (BSA) and 1 mM DTT. To this incubation mixture, 40 μl of AlphaLISA anti-FLAG acceptor (PerkinElmer Cat. No. AL112C) and streptavidin donor (PerkinElmer Cat. No. 6760002) beads (10 μg/mL each) was added and incubation continued at RT for 60 min. Alpha (amplified luminescent proximity homogeneous assay) signal was measured on an Envision multi-label plate reader at the end of the incubation. All steps were conducted under dim fluorescent light.
These percent inhibition values were regressed against compound concentrations in the assay using four parameter logit non-linear curve fitting (XLFit, IDBS). The IC50 values were derived from the curve fitting as inflection points on the dose-response curves and are set out in Table 14 below.

IC50 [µM] | Structure (SMILES)
< 0.1 | CC(C)N(C)C(=O)c1cc(F)ccc1-n1cc([C@H]2CC[C@H](N3CC[C@@H](CO)C3)CC2)c2ccncc21 [Example 102, 5-fluoro-2-(3-(trans-4-((R)-3-(hydroxymethyl)pyrrolidin-1-yl)cyclohexyl)-1H-pyrrolo [2,3-c]pyridin-1-yl)-N-isopropyl-N-methylbenzamide]
0.1 to 1 | CC(C)N(C)C(=O)c1cc(F)ccc1-n1c(=S)n(C2CCCN(Cc3ccc4[nH]c(=O)[nH]c4c3)C2)c2ccncc21 (stereo not shown) [Example 135, 5-fluoro-N-isopropyl-N-methyl-2-(1-(1-((2-oxo-2,3-dihydro-1H-benzo[d]imidazol-5-yl)methyl)piperidin-3-yl)-2-thioxo-1,2-dihydro-3H-imidazo[4,5-c]pyridin-3-yl)benzamide]
≥ 1 | O=c1[nH]c2ccc(CN3CCC(c4cn(-c5ccc(F)cc5)c5cncnc45)CC3)cc2[nH]1 [Example 67, 5-((4-(5-(4-fluorophenyl)-5H-pyrrolo[3,2-d]pyrimidin-7-yl)piperidin-1-yl)methyl)-1H-benzo[d]imidazol-2(3H)-one]
0.1 to 1 | CC(C)CCN1CCC(c2cn(-c3ccc(F)cc3)c3cnccc23)CC1 [Example 39, 1-(4-fluorophenyl)-3-(1-isopentylpiperidin-4-yl)-1H-pyrrolo[2,3-c]pyridine]
< 0.1 | CC(C)N(C)C(=O)c1cc(F)ccc1-n1cc(C2CCN(CCc3cccc(C#N)c3)CC2)c2ccncc21 [Example 25, 2-(3-(1-(3-cyanophenethyl)piperidin-4-yl)-1H-pyrrolo[2,3-c]pyridin-1-yl)-5-fluoro-N-isopropyl-N-methylbenzamide]
< 0.1 | CC(C)N(C)C(=O)c1cc(F)ccc1-n1cc(C2CC3CN(C[C@H]4C[C@H](NS(C)(=O)=O)C4)CC3C2)c2ccncc21 (stereo partly drawn) [Example 89, 5-fluoro-N-isopropyl-N-methyl-2-(3-(2-((trans-3-(methylsulfonamido)cyclobutyl)methyl)octahydrocyclopenta[c]pyrrol-5-yl)-1H-pyrrolo[2,3-c]pyridin-1-yl)benzamide]
< 0.1 | CC(C)N(C)C(=O)c1cc(F)ccc1-n1cc(C2CCC(N(C)CC3CCC(NS(C)(=O)=O)CC3)CC2)c2ccncc21 (single isomer, unassigned) [Example 128A, 5-fluoro-N-isopropyl-N-methyl-2-(3-(4-(methyl((4-(methylsulfonamido)cyclohexyl)methyl)amino)cyclohexyl)-1H-pyrrolo[2,3-c]pyridin-1-yl)benzamide]
≥ 1 | CC(C)N(C)C(=O)c1cc(F)ccc1-n1cc(C2CCC(O)CC2)c2ccncc21 (single isomer, unassigned) [Example 53, 5-fluoro-2-(3-(4-hydroxycyclohexyl)-1H-pyrrolo[2,3-c]pyridin-1-yl)-N-isopropyl-N-methylbenzamide]
0.1 to 1 | Cc1cc(F)ccc1-n1cc(C2CCN(Cc3ccc4[nH]c(C#N)cc4c3C)CC2)c2ncncc21 [Example 70, 5-((4-(5-(4-fluoro-2-methylphenyl)-5H-pyrrolo[3,2-d]pyrimidin-7-yl)piperidin-1-yl)methyl)-4-methyl-1H-indole-2-carbonitrile]
< 0.1 | CC(C)N(C)C(=O)c1cc(F)ccc1-n1cc([C@H]2CC[C@@H](N3CCC[C@H]3CO)CC2)c2ccncc21 [Example 97, 5-fluoro-2-(3-(cis-4-((S)-2-(hydroxymethyl)pyrrolidin-1-yl)cyclohexyl)-1H-pyrrolo[2,3-c]pyridin-1-yl)-N-isopropyl-N-methylbenzamide]
≥ 1 | CC(C)N(C)C(=O)c1cc(F)ccc1-n1cc(C2CCCN(C(=O)OC(C)(C)C)C2)c2ccncc21 (stereo not shown) [Int. 2, tert-butyl 3-(1-(4-fluoro-2-(isopropyl(methyl)carbamoyl)phenyl)-1H-pyrrolo[2,3-c]pyridin-3-yl)piperidine-1-carboxylate]
< 0.1 | CC(C)N(C)C(=O)c1cc(F)ccc1-n1cc([C@H]2CC[C@@H](N3CCC[C@@H]3CO)CC2)c2ccncc21 [Example 101, 5-fluoro-2-(3-(cis-4-((R)-2-(hydroxymethyl)pyrrolidin-1-yl)cyclohexyl)-1H-pyrrolo [2,3-c]pyridin-1-yl)-N-isopropyl-N-methylbenzamide]
≥ 1 | O=c1[nH]c2ccc(CN3CCC(c4cn(-c5ccccc5)c5cncnc45)CC3)cc2[nH]1 [Example 73, 5-((4-(5-phenyl-5H-pyrrolo[3,2-d]pyrimidin-7-yl)piperidin-1-yl)methyl)-1H-benzo[d]imidazol-2(3H)-one]
< 0.1 | CC(C)N(C)C(=O)c1cc(F)ccc1-n1cc([C@H]2CC[C@@H](N3CCCCC3)CC2)c2ccncc21 [Example 107]
0.1 to 1 | CC(C)N(C)C(=O)c1cc(F)ccc1-n1cc(-c2ccc3c(c2)CCN(C)C3)c2ccncc21 [Example 52, 5-fluoro-N-isopropyl-N-methyl-2-(3-(2-methyl-1,2,3,4-tetrahydroisoquinolin-6-yl)-1H-pyrrolo[2,3-c]pyridin-1-yl)benzamide]
< 0.1 | Fc1ccc(CN2CCC(c3cn(-c4ccc(F)cc4OCC4CC4)c4cnccc34)CC2)cc1 [Example 35, 1-(2-(cyclopropylmethoxy)-4-fluorophenyl)-3-(1-(4-fluorobenzyl)piperidin-4-yl)-1H-pyrrolo[2,3-c]pyridine]
< 0.1 | CC(=O)Nc1ccc(CN2CCC(c3cn(-c4ccc(F)cc4C(=O)N(C)C(C)C)c4cnccc34)CC2)cc1 [Example 22, 2-(3-(1-(4-acetamidobenzyl)piperidin-4-yl)-1H-pyrrolo[2,3-c]pyridin-1-yl)-5-fluoro-N-isopropyl-N-methylbenzamide]
0.1 to 1 | CC(C)N(C)C(=O)c1cc(F)ccc1-n1cc(C2CCN(C(=O)Cc3ccccc3)CC2)c2ccncc21 [Example 133, 5-fluoro-N-isopropyl-N-methyl-2-(3-(1-(2-phenylacetyl)piperidin-4-yl)-1H-pyrrolo[2,3-c]pyridin-1-yl)benzamide]
0.1 to 1 | CC(C)N(C)C(=O)c1cc(F)ccc1-n1cc(C2CCC(N3CCNC(=O)C3)CC2)c2ccncc21 (stereo not shown) [Example 116, 5-fluoro-N-isopropyl-N-methyl-2-(3-(4-(3-oxopiperazin-1-yl)cyclohexyl)-1H-pyrrolo[2,3-c]pyridin-1-yl)benzamide]
≥ 1 | Cc1c(CN2CCC(c3cn(-c4cccc(F)c4)c4cncnc34)CC2)ccc2[nH]c(C#N)cc12 [Example 71, 5-((4-(5-(3-fluorophenyl)-5H-pyrrolo[3,2-d]pyrimidin-7-yl)piperidin-1-yl)methyl)-4-methyl-1H-indole-2-carbonitrile]
< 0.1 | CC(C)N(C)C(=O)c1cc(F)ccc1-n1cc([C@H]2CC[C@@H](N3CCOCC3)CC2)c2ccncc21 [Example 118, 5-fluoro-N-isopropyl-N-methyl-2-(3-(cis-4-morpholinocyclohexyl)-1H-pyrrolo[2,3-c]pyridin-1-yl)benzamide]
< 0.1 | CC(C)N(C)C(=O)c1cc(F)ccc1-n1c(=O)n(C2CCN(CC3CCCCC3)CC2)c2ccncc21 [Example 81, 2-(1-(1-(cyclohexylmethyl)piperidin-4-yl)-2-oxo-1,2-dihydro-3H-imidazo[4,5-c]pyridin-3-yl)-5-fluoro-N-isopropyl-N-methylbenzamide]
≥ 1 | CC(C)N(C)C(=O)c1cc(F)ccc1-n1cc([C@H]2CC[C@H](NC(=O)C3CCCCC3)CC2)c2ccncc21 [Example 130, 2-(3-(trans-4-(cyclohexanecarboxamido)cyclohexyl)-1H-pyrrolo[2,3-c]pyridin-1-yl)-5-fluoro-N-isopropyl-N-methylbenzamide]
< 0.1 | Cc1c(CN2CCC(c3cn(-c4ccc(F)cc4C(=O)N(C)C)c4cncnc34)CC2)ccc2[nH]c(C#N)cc12 [Example 64, 2-(7-(1-((2-cyano-4-methyl-1H-indol-5-yl)methyl)piperidin-4-yl)-5H-pyrrolo[3,2-d]pyrimidin-5-yl)-5-fluoro-N,N-dimethylbenzamide]
< 0.1 | CC(C)N(C)C(=O)c1cc(F)ccc1-n1cc(C2CCCN(Cc3ccc4[nH]c(=O)[nH]c4c3)C2)c2ccncc21 (single isomer, unassigned) [Example 43B, 5-fluoro-N-isopropyl-N-methyl-2-(3-(1-((2-oxo-2,3-dihydro-1H-benzo[d]imidazol-5-yl)methyl)piperidin-3-yl)-1H-pyrrolo[2,3-c]pyridin-1-yl)benzamide]

Source: US10899758B2, “Inhibitors of the menin-MLL interaction” (Vitae Pharmaceuticals, LLC, priority 2016, dated 2021)
